Laboratory results: patent US11254700B2, “GSK-3β inhibitors and use thereof in methods of treatment” (UNIVERSITY OF HAWAII, priority 2017, dated 2022)
Several values for one entry are separate records, joined by “and”; a condition that tells them apart may be missing. Identical values can stand only once. Entries after “also recorded” stand apart in the source; their conditions may differ. Like-named read-outs stand apart in the source and are kept apart here.

Legend:
GSK-3β [1] = target: T1, GSK-3β (Homo sapiens, UniProt P49841); assay: Kinase luminescent assay (ADP-Glo), GSK-3β inhibition; type: biochemical; settings: for IC50: 25 μM ATP, 1 hour, room temperature, mean of quadruplicate of two experiments, read-out: IC50 against GSK-3β
Procedure: Kinase Luminescent Assay.
Kinase inhibition was assessed with the ADP-Glo Kinase Assay. […] The reaction mixture was incubated for 1 hour at room temperature followed by the addition of the ADP-Glo′ reagents according to the manufacturer's protocol. The kinase inhibitor staurosporine was used at 1 μM as a reference control. Each data point was collected in quadruplicate of two independent experiments.
Target sequence in this assay (P49841 whole entry): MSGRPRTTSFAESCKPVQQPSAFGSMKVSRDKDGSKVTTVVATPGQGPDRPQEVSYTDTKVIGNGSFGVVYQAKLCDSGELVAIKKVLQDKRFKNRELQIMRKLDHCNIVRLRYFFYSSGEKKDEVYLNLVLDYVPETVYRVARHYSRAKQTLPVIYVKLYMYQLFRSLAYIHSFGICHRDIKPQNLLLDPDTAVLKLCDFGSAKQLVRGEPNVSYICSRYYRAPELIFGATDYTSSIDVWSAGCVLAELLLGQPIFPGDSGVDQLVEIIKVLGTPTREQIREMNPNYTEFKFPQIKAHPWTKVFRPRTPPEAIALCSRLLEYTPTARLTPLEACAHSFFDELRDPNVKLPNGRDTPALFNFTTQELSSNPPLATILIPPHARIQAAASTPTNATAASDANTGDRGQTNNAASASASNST

in vitro = settings: for Pe / R (percent recovery): 20 μM; for permeability compared to isoorientin 1: 5-hour incubation
Procedure: Samples were run in quadruplicate.
Oral administration is noninvasive and is preferred for chronical diseases such as Alzheimer's disease and other CNS disorders. […] In the PAMPA model, the amount of target compounds diffused from a donor compartment to an acceptor compartment through a tri-layer phospholipid pre-coated membrane are measured to assess oral-absorption potential of drug candidates. In the present study, 1, 4, 9, 17, 21 and 30 were evaluated with the PAMPA assay.

[2] = tested on: GSK-3β-mediated tau phosphorylation (pS396) in SH-SY5Y lysate; assay: Whole-cell lysate GSK-3β assay with human Tau pS396 ELISA; type: biochemical; settings: for GSK-3β-mediated tau hyperphosphorylation at pS396: 2, 10 and 50 μM, 2 hours, 37° C., lysate with 0.25% GSK-3β
Procedure: Whole-Cell Lysate GSK-3β Assay.
The assay procedure was followed as described (Liang, et al. (2016) ACS Chem. Neurosci. 7:912-923). SH-SY5Y cells were washed with phosphate-buffered saline (PBS) and lysed with cell extraction buffer containing 10 mM Tris, pH 7.4, 100 mM NaCl, 1 mM EDTA, 1 mM EGTA, 1 mM NaF, 20 mM Na4P2O7, 2 mM Na3VO4, 1% Triton X-100, 10% glycerol, 0.1% sodium dodecyl sulfate (SDS), 0.5% sodium deoxycholate, 1 mM phenylmethanesulfonyl fluoride (PMSF) and a protease inhibitor cocktail. Lysate was diluted with kinase buffer (40 mM Tris, pH 7.5, 20 mM MgCl2, 50 μM DTT, 400 μM ATP) to afford a concentration of 5 μg/μL of total protein, and split into aliquots. Recombinant human GSK-3β was fortified into lysate aliquots to a final concentration of 0.25% (wt/wt) of total protein. A lysate aliquot fortified with heat-inactivated GSK-3β was used as a negative control. The fortified lysate aliquots were incubated with test sample or 5% DMSO vehicle at 37° C. for 2 hours followed by ELISA analysis.
The quantitative determination of phosphorylated human tau at GSK-3β specific pS396 site was conducted by taking 50 μL diluted cell lysate and using a specific antibody against human tau [pS396] in a sandwich ELISA according to the manufacturer's protocol. Tau phosphorylation was quantified by measuring the absorbance at 450 nm in a microtiter plate reader. The analysis was collected in quadruplicate of two independent experiments.

GSK-3β [3] = target: T1, GSK-3β; assay: GSK-3β kinetics (Lineweaver-Burk), ATP or substrate GS2 competition; type: biochemical; settings: 30 at 0 to 5 μM
Procedure: To study GSK-3β kinetics, a reaction solution contained 5 ng/μL kinase, 40 mM Tris, pH 7.5, 20 mM MgCl2, 0.1 mg/mL BSA, 50 μM DTT, and varying concentrations of ATP or substrate GS2 (residues 636-662 of human muscle glycogen synthase) versus test samples. The mixture was incubated for 5, 15, 30, and 60 minutes at room temperature followed by the addition of the ADP-Glo′ reagents according to the manufacturer's protocol. The Lineweaver-Burk representation is derived from the double reciprocal plotting of the enzyme kinetic data.
Under a constant concentration of the substrate GS2 (17 μM), ATP concentrations varied from 2 to 50 μM and 30 concentrations varied from 0 to 5 μM. […] In the second set of experiments under a constant concentration of ATP (10 μM), substrate GS2 concentrations varied from 8 to 66 μM and 30 concentrations varied from 0 to 5 μM. […] The enzyme inhibitory behaviors of 30 are similar to that of the parent compound 1 (Liang, et al. (2016) ACS Chem. Neurosci. 7:912-923) and therefore confirm that the new analogues are indeed substrate-competitive inhibitors of GSK-3β.
Target sequence in this assay (P49841 whole entry): as above

GSK-3β [4] = target: T1, GSK-3β; assay: Kinase selectivity profile, GSK-3β; type: biochemical
Procedure: (§1) Kinase inhibition was assessed with the ADP-Glo Kinase Assay. For screening, 5 ng/μL of kinase was assayed in a reaction containing 50 ng/μL substrate, 40 mM Tris, pH 7.5, 20 mM MgCl2, 0.1 mg/mL bovine serum albumin, 50 μM dithiothreitol (DTT), 25 μM ATP, varying concentrations of test samples or 5% DMSO as vehicle. The reaction mixture was incubated for 1 hour at room temperature followed by the addition of the ADP-Glo′ reagents according to the manufacturer's protocol. The kinase inhibitor staurosporine was used at 1 μM as a reference control. Each data point was collected in quadruplicate of two independent experiments.
(§2) To assess kinase selectivity, compound 30 was screened against a panel of 41 human protein kinases of relevance to Alzheimer's disease and other CNS disorders (Martin, et al. (2013) Aging Res. Rev. 12:289-309). […] The exceptional selectivity of compound 30 to GSK-3β can effectively minimize risk of off-target effects.
Target sequence in this assay (P49841 whole entry): as above

GSK-3α = GSK-3α (Homo sapiens, UniProt P49840); assay: Kinase selectivity profile, GSK-3α; type: biochemical
Sequence of GSK-3α (P49840 whole entry): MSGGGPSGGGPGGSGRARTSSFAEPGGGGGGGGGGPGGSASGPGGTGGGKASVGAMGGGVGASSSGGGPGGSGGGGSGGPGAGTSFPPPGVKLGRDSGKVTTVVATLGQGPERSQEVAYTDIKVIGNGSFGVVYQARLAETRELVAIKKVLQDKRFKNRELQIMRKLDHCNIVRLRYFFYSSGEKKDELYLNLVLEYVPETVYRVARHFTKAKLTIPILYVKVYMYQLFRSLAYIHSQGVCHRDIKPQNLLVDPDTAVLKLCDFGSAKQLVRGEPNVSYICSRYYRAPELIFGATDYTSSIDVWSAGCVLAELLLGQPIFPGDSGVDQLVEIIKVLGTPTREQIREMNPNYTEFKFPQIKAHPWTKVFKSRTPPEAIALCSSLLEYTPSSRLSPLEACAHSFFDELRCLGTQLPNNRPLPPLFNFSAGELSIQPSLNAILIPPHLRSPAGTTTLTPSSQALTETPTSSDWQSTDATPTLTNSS
Procedure: as §1, §2

[5] = tested on: panel of 41 human protein kinases; assay: Kinase selectivity profile, other kinases of the panel; type: biochemical; settings: 5 μM
Procedure: as §1, §2

SH-SY5Y cells = assay: Cytotoxicity in SH-SY5Y cells; type: cell-based, human; settings: 1000 μM
Procedure: (§3) Human neuroblastoma SH-SY5Y cell line (Sigma-Aldrich, Saint Louis, Mo.) was cultured in DMEM/F12 (v/v 1:1) media supplemented with 2 mM glutamine, 10% heat-inactivated fetal bovine serum (FBS) and 1% antibiotics including penicillin and streptomycin. After reaching 70-80% confluence, cells were then subcultured on poly-L-lysine plates with 10 μM retinoic acid in a reduced serum media (1% FBS) to promote neuronal maturation and differentiation as described (Agholme, et al. (2010) J. Alzheimer's Dis. 20: 1069-1082). Cell cultures were incubated at 37° C. in a fully humidified atmosphere containing 5% CO2.
(§4) SH-SY5Y cells were seeded at a density of 3×10^5 cells/mL in a 96-well plate in DMEM/F12 media containing 10 μM retinoic acid and 1% FBS to suppress cell proliferation. Cells were incubated under regular culture conditions for attachment. After 24 hours of plating, the cells were pretreated with different concentrations of test samples or the 0.2% DMSO as a vehicle control for 1 hour and then co-incubated with 10 μM Aβ42 for 72 hours. After the experimental treatment, the cells were subject to a […]® 96 AQueous One Solution Cell Proliferation […] Assay according to the manufacturer's instruction. […] Each data point was collected in triplicate of two independent experiments.

[6] = tested on: SH-SY5Y cells treated with Aβ42 oligomers; assay: Anti-Aβ42 neurotoxicity assay; type: cell-based, human
Procedure: as §3
The toxic oligomers of Aβ42 were prepared as described (Liang, et al. (2016) ACS Chem. Neurosci. 7:912-923). Briefly, lyophilized Aβ42 peptide was dissolved in hexafluoroisopropanol, dried under vacuum, and stored at −20° C. Immediately prior to use, the peptide residue was reconstituted in DMEM/F12 media to make a stock solution at 0.1 mM and incubated at 4° C. for 24 hours to form diffusible oligomers. Aβ42 oligomers at a final concentration of 10 μM were assayed for cell viability.
as §4

GSK-3β [7] = target: T1, GSK-3β; settings: background; cited from earlier work
Target sequence in this assay (P49841 whole entry, species assumed): as the sequence (P49841 whole entry) above

[8] = pH 7.4, 5 hours, room temperature, mean ±SD

## O=c1cc(-c2ccc(O)c(O)c2)oc2cc(O)cc(O)c12 [Compound 4, luteolin, reference compound]
GSK-3β [1]
  IC50: 3.1 µM
In vitro; PAMPA, 5 h, pH 7.4
  Pe: 1.42 ± 0.07 ×10^−6 cm/s
  R (percent recovery): 43%
In vitro; PAMPA, pH 7.4
  Papp at 5 h, 20 µM: 1 to 1.5 ×10⁻⁶ cm/s

## COc1ccc(-c2cc(=O)c3c(OC)c([C@@H]4O[C@H](C(=O)NC(C)C)[C@@H](O)[C@H](O)[C@H]4O)c(OC)cc3o2)cc1OC [Compound 9, (2S,3S,4R,5R,6S)-6-(2-(3,4-Dimethoxyphenyl)-5,7-dimethoxy-4-oxo-4H-chromen-6-yl)-3,4,5-trihydroxy-N-isopropyltetrahydro-2H-pyran-2-carboxamide]
GSK-3β [1]
  IC50: 5.4 ± 0.1 µM
In vitro; pH 7.4, 5 hours
  R (percent recovery): 46%
In vitro; [8]
  Pe: 1.55 ± 0.06 ×10^−6 cm/s
In vitro
  permeability compared to isoorientin 1: significant increase in permeability
In vitro; PAMPA
  Permeability classification: high (high (Pe > 1.5 × 10^−6 cm/s))
[2]
  GSK-3β-mediated tau hyperphosphorylation at pS396: effectively attenuated tau hyperphosphorylation in a dose-dependent manner; also recorded: attenuate GSK-3β-mediated tau phosphorylation

## COc1ccc(-c2cc(=O)c3c(OC)c([C@@H]4O[C@H](C(=O)NC5CCCCC5)[C@@H](O)[C@H](O)[C@H]4O)c(OC)cc3o2)cc1OC [Compound 17, (2S,3S,4R,5R,6S)—N-Cyclohexyl-6-(2-(3,4-dimethoxyphenyl)-5,7-dimethoxy-4-oxo-4H-chromen-6-yl)-3,4,5-trihydroxytetrahydro-2H-pyran-2-carboxamide]
GSK-3β [1]
  IC50: 9 ± 1.3 µM
In vitro; pH 7.4, 5 hours
  R (percent recovery): 20%
In vitro; [8]
  Pe: 1.77 ± 0.07 ×10^−6 cm/s
In vitro
  permeability compared to isoorientin 1: significant increase in permeability
In vitro; PAMPA
  Permeability classification: high (high (Pe > 1.5 × 10^−6 cm/s))
[2]
  GSK-3β-mediated tau hyperphosphorylation at pS396: effectively attenuated tau hyperphosphorylation in a dose-dependent manner; also recorded: attenuate GSK-3β-mediated tau phosphorylation

## COc1ccc(-c2cc(=O)c3c(OC)c([C@@H]4O[C@H](C(=O)NCc5ccccc5)[C@@H](O)[C@H](O)[C@H]4O)c(OC)cc3o2)cc1OC [Compound 21, (2S,3S,4R,5R,6S)-6-(2-(3,4-Dimethoxyphenyl)-5,7-dimethoxy-4-oxo-4H-chromen-6-yl)-3,4,5-trihydroxy-N-benzyltetrahydro-2H-pyran-2-carboxamide]
GSK-3β [1]
  IC50: 15.8 ± 1.2 µM
In vitro; pH 7.4, 5 hours
  R (percent recovery): 30%
In vitro; [8]
  Pe: 1.35 ± 0.08 ×10^−6 cm/s
In vitro
  permeability compared to isoorientin 1: significant increase in permeability
In vitro; PAMPA
  Permeability classification: medium (medium (1.0 × 10^−6 cm/s ≤ Pe ≤ 1.5 × 10^−6 cm/s))
[2]
  GSK-3β-mediated tau hyperphosphorylation at pS396: effectively attenuated tau hyperphosphorylation in a dose-dependent manner; also recorded: attenuate GSK-3β-mediated tau phosphorylation

## COc1ccc(-c2cc(=O)c3c(OC)c([C@@H]4O[C@H](C(=O)N[C@@H](C)C(F)(F)F)[C@@H](O)[C@H](O)[C@H]4O)c(OC)cc3o2)cc1OC [Compound 30, (2S,3S,4R,5R,6S)-6-(2-(3,4-Dimethoxyphenyl)-5,7-dimethoxy-4-oxo-4H-chromen-6-yl)-3,4,5-trihydroxy-N—((S)-1,1,1-trifluoropropan-2-yl)tetrahydro-2H-pyran-2-carboxamide]
GSK-3β [1]
  LiPE (pIC50−CLogP): > 4
  IC50: < 20 µM and 0.59 µM
GSK-3β [1]; vs 31
  potency against GSK-3β relative to epimer 31: about 4 fold
GSK-3β [1]; vs isoorientin 1
  increase of potency against GSK-3β relative to 1: 310 fold
In vitro; pH 7.4, 5 hours
  R (percent recovery): 30%
In vitro; [8]
  Pe: 2.23 ± 0.21 ×10^−6 cm/s
In vitro; PAMPA
  Permeability classification: high (high (Pe > 1.5 × 10^−6 cm/s))
[2]; 10 μM, TDZD-8 at the same concentration
  inhibition of tau hyperphosphorylation compared to TDZD-8: better inhibition against tau hyperphosphorylation
[2]
  GSK-3β-mediated tau hyperphosphorylation at pS396: effectively attenuated tau hyperphosphorylation in a dose-dependent manner; also recorded: attenuate GSK-3β-mediated tau phosphorylation
GSK-3β [3]; ATP 10 μM, GS2 8 to 66 μM
  competition with substrate GS2: competed with the substrate GS2
GSK-3β [3]; GS2 17 μM, ATP 2 to 50 μM
  competition with ATP: no competition between ATP and 30
GSK-3β [4]; 5 μM
  specificity for GSK-3β versus GSK-3α: 12.3 fold
GSK-3β [4]; read-out: GSK-3β inhibition (decrease of kinase activity)
  inhibition at 5 µM: 92.3%
GSK-3α
  inhibition at 5 µM: 7.5%
[5]
  inhibition of 40 out of 41 kinases of the test panel: only marginal or weak inhibition
SH-SY5Y cells
  cytotoxicity: no observable cytotoxicity
[6]; 1.25 to 20 μM, 10 μM Aβ42, 72 hours
  protection against Aβ42 neurotoxicity: neuroprotection in a dose-dependent manner; also recorded: alleviates Aβ42 induced neurotoxicity
[6]; 30 at 10 μM versus 1 at 200 μM
  improvement in effectiveness compared to parent compound: ~20 fold
[6]; Homo sapiens, SH-SY5Y, 1 hour pretreatment, 10 μM Aβ42, 72 hours, read-out: neuroprotective potency EC50
  EC50: 8.7 µM
[6]; morphological observations
  effective dose, morphological protection from Aβ42 intoxication: 10 μM
[6]; vs parent compound 1
  increase of neuroprotective potency relative to 1: 5.4 fold

## CNCCCN1c2ccccc2CCc2ccccc21 [Desipramine, reference compound]
In vitro; PAMPA, 5 h, pH 7.4
  Pe: 13.43 ± 0.91 ×10^−6 cm/s
  R (percent recovery): 96%

## O=C([O-])[O-].[Li+].[Li+] [lithium carbonate]
GSK-3β [7]
  IC50: 2000 µM
